Laboratory results published in paper PMC5706701, “Development of a homogenous high-throughput assay for inositol hexakisphosphate kinase 1 activity” (PLoS ONE, 2017).
Structures can show the parent of a compound that is named as a salt. One block for each compound: values may come before it.

Target: T1, Human IP6K1 (Homo sapiens, UniProt Q92551)
T1 construct: GST (N, cleaved yes); made in house; host or cells: C43 E. coli, pGEX-6P-2
Test: IP6K1 high-throughput screen of the Sigma LOPAC (ADP-Glo Max, single point);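 further: final compound concentration 10µM in 5% DMSO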
Type: biochemical

[1] = LOPAC single-point screen, ADP-Glo Max luminescence raw signal per well
[2] = LOPAC single-point screen, Z-score relative to plate average and StDev
[3] = LOPAC single-point screen, ADP-Glo Max raw signal per well
[4] = LOPAC single-point screen, Z-score against plate average and StDev
[5] = LOPAC single-point screen, Z-score from raw signal with plate average and StDev
[6] = Sigma LOPAC single-point screen, ADP-Glo Max raw signal per well
[7] = Sigma LOPAC single-point screen, Z-score from plate average and StDev
[8] = LOPAC single-point screen, Z-score from plate average and StDev

T1 sequence (Q92551 whole entry): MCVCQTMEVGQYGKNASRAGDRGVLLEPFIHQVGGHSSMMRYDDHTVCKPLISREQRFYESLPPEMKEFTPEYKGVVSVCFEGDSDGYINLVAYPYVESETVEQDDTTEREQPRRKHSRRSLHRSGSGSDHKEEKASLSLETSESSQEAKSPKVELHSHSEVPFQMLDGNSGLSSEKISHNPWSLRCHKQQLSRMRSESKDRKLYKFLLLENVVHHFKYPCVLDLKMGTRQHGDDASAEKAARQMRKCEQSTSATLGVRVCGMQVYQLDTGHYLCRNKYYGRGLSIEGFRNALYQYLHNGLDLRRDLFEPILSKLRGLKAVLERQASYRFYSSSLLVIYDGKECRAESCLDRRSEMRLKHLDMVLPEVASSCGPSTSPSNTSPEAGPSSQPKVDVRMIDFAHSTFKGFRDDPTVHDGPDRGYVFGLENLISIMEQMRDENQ

SMILES: Cn1c(=O)c2[nH]cnc2n(C)c1=O [Theophylline]
Raw Signal [1]: 53365
Z-score [2]: -0.5166

SMILES: NC(=S)c1ccc[n+]([C@@H]2O[C@@H](COP(=O)([O-])OP(=O)(O)OC[C@H]3O[C@@H](n4cnc5c(N)ncnc54)C(OP(=O)([O-])O)[C@H]3O)C(O)C2O)c1.[Na+] (stereo partly shown) [Thio-NADP sodium]
Raw Signal [3]: 56703
Z-score [4]: 0.132

SMILES: S=C(NC1CCCCC1)N1CCC(c2cnc[nH]2)CC1 [Thioperamide maleate]
Raw Signal [3]: 54981
Z-score [5]: -0.2026

SMILES: Cc1ccc(S(=O)(=O)NC(=O)NN2CCCCCC2)cc1 [Tolazamide]
Raw Signal [1]: 64192
Z-score [8]: 1.587

SMILES: CCCCNC(=O)NS(=O)(=O)c1ccc(C)cc1 [Tolbutamide]
Raw Signal [1]: 65444
Z-score [8]: 1.83

SMILES: CNCC[C@@H](Oc1ccccc1C)c1ccccc1 [Tomoxetine]
Raw Signal [6]: 58582
Z-score [7]: 0.497

SMILES: N[C@@H]1C[C@H]1c1ccccc1 [Tranylcypromine hydrochloride]
Raw Signal [3]: 55566
Z-score [4]: -0.08894

SMILES: O=c1n(CCCN2CCN(c3cccc(Cl)c3)CC2)nc2ccccn12 [Trazodone hydrochloride]
Raw Signal [6]: 58114
Z-score [7]: 0.4061

SMILES: Nc1nc(N)c2nc(-c3ccccc3)c(N)nc2n1 [Triamterene]
Raw Signal [1]: 65476
Z-score [8]: 1.836

SMILES: CN1CCN(CCCN2c3ccccc3Sc3ccc(C(F)(F)F)cc32)CC1 [Trifluoperazine dihydrochloride]
Raw Signal [6]: 58037
Z-score [7]: 0.3911

SMILES: OC(CCN1CCCCC1)(c1ccccc1)C1CCCCC1 (stereo not shown) [Trihexyphenidyl hydrochloride]
Raw Signal [6]: 57771
Z-score [7]: 0.3394

SMILES: CC(CN(C)C)CN1c2ccccc2CCc2ccccc21 (stereo not shown) [Trimipramine maleate]
Raw Signal [1]: 53117
Z-score [2]: -0.5647

SMILES: NCCc1c[nH]c2ccccc12 [Tryptamine hydrochloride]
Raw Signal [6]: 60596
Z-score [7]: 0.4725

SMILES: CC(C)(C)NCC(O)c1ccccc1Cl (stereo not shown) [Tulobuterol hydrochloride]
Raw Signal [3]: 54303
Z-score [5]: -0.3343

SMILES: N#C/C(=C\c1ccc(O)c(O)c1)C(N)=S [Tyrphostin 47]
Raw Signal [1]: 42103
Z-score [2]: -2.705

SMILES: CC(C)(C)c1cc(C=C(C#N)C#N)cc(C(C)(C)C)c1O [Tyrphostin A9]
Raw Signal [3]: 55633
Z-score [4]: -0.07593

SMILES: COc1cc(C=C(C#N)C#N)cc(O)c1O [Tyrphostin AG 34]
Raw Signal [3]: 55934
Z-score [4]: -0.01745

SMILES: N#CC(C#N)=Cc1ccc([N+](=O)[O-])c(O)c1 [Tyrphostin AG 126]
Raw Signal [1]: 65028
Z-score [8]: 1.749

SMILES: N#C/C(=C\c1ccc(O)c(O)c1)C(=O)NCc1ccccc1 [Tyrphostin AG 490]
Raw Signal [3]: 54184
Z-score [5]: -0.3574

SMILES: N#C/C(=C\c1ccc(O)c(O)c1)C(=O)NCCCNC(=O)/C(C#N)=C/c1ccc(O)c(O)c1 [Tyrphostin AG 537]
Raw Signal [1]: 33325
Z-score [2]: -4.41

SMILES: N#C/C(=C\c1ccc(O)c(O)c1)C(=O)c1ccc(O)c(O)c1 [Tyrphostin AG 538]
Raw Signal [1]: 38614
Z-score [2]: -3.382

SMILES: COc1cc2ncnc(Nc3cccc(Cl)c3)c2cc1OC [Tyrphostin AG 1478]
Raw Signal [6]: 57891
Z-score [7]: 0.3628

SMILES: N#CC(=C(/N)Sc1ccccc1N)/C(C#N)=C(/N)Sc1ccccc1N [U0126]
Raw Signal [3]: 55334
Z-score [5]: -0.134

SMILES: COc1ccc2c(c1)CC[C@@H]1[C@@H]2CC[C@]2(C)[C@@H](NCCCCCCN3C(=O)C=CC3=O)CC[C@@H]12 [U-73122]
Raw Signal [3]: 55186
Z-score [5]: -0.1628

SMILES: C[C@]12C=CC(=O)C=C1CC[C@@H]1C2=CC[C@]2(C)[C@@H](C(=O)CN3CCN(c4cc(N5CCCC5)nc(N5CCCC5)n4)CC3)CC[C@@H]12.O=C(O)/C=C\C(=O)O [U-74389G maleate]
Raw Signal [1]: 52844
Z-score [2]: -0.6178

The next lines start with the values.

Raw Signal [3]: 51778
Z-score [5]: -0.4395
SMILES: C=C/C(C)=C/[C@@]1(C)SC(=O)C(C)=C1O [Thiolactomycin]

Raw Signal [3]: 57676
Z-score [4]: 0.321
SMILES: CSc1ccc2c(c1)N(CCC1CCCCN1C)c1ccccc1S2 (stereo not shown) [Thioridazine hydrochloride]

Raw Signal [1]: 52919
Z-score [2]: -0.6032
SMILES: CN1CCN(CC/C=C2/c3ccccc3Sc3ccc(S(=O)(=O)N(C)C)cc32)CC1.Cl [Thiothixene hydrochloride]

Raw Signal [6]: 58277
Z-score [7]: 0.4378
SMILES: CCN(CC)CCNC(=O)c1cc(S(C)(=O)=O)ccc1OC [Tiapride hydrochloride]

Raw Signal [6]: 59222
Z-score [7]: 0.6213
SMILES: CCCCNc1c(C(=O)OCC)c(C)nc2c1cnn2CC [Tracazolate]

Raw Signal [1]: 68948
Z-score [8]: 2.511
SMILES: COc1ccc(/C=C/C(=O)Nc2ccccc2C(=O)O)cc1OC [Tranilast]

Raw Signal [3]: 54369
Z-score [5]: -0.3215
SMILES: COc1cc2c(cc1OC)-c1c/c(=N\c3c(C)cc(C)cc3C)n(C)c(=O)n1CC2 [Trequinsin hydrochloride]

Raw Signal [6]: 60096
Z-score [7]: 0.7912
SMILES: C[C@]12C=CC(=O)C=C1CC[C@H]1[C@@H]3C[C@@H](O)[C@](O)(C(=O)CO)[C@@]3(C)C[C@H](O)[C@@]12F [Triamcinolone]

Raw Signal [3]: 56876
Z-score [4]: 0.1656
SMILES: O=C(CCCN1CCC(O)(c2cccc(C(F)(F)F)c2)CC1)c1ccc(F)cc1 [Trifluperidol hydrochloride]

Raw Signal [3]: 54007
Z-score [5]: -0.3918
SMILES: CN(C)CCCN1c2ccccc2Sc2ccc(C(F)(F)F)cc21 [Triflupromazine hydrochloride]

Raw Signal [6]: 61776
Z-score [7]: 1.118
SMILES: COc1cc(Cc2cnc(N)nc2N)cc(OC)c1OC [Trimethoprim]

Raw Signal [3]: 57463
Z-score [4]: 0.2796
SMILES: Cc1ccc(/C(=C\CN2CCCC2)c2ccccn2)cc1.Cl [Triprolidine hydrochloride]

Raw Signal [1]: 48444
Z-score [2]: -1.473
SMILES: N#CC(C#N)=Cc1ccc(O)c(O)c1 [Tyrphostin 23]

Raw Signal [1]: 46819
Z-score [2]: -1.788
SMILES: N#CC(C#N)=Cc1cc(O)c(O)c(O)c1 [Tyrphostin 25]

Raw Signal [1]: 44032
Z-score [2]: -2.33
SMILES: N#CC(C#N)=C(N)/C(C#N)=C/c1cc(O)c(O)c(O)c1 [Tyrphostin 51]

Raw Signal [1]: 52903
Z-score [2]: -0.6063
SMILES: N#CC(C#N)=C(N)/C(C#N)=C/c1ccc(O)cc1 [Tyrphostin AG 112]

Raw Signal [3]: 54872
Z-score [5]: -0.2238
SMILES: N#C/C(=C\c1ccc(O)c(O)c1)C(=O)Nc1ccccc1 [Tyrphostin AG 494]

Raw Signal [3]: 54153
Z-score [5]: -0.3635
SMILES: C[C@@H](NC(=O)/C(C#N)=C/c1ccc(O)c(O)c1)c1ccccc1 [Tyrphostin AG 527]

Raw Signal [6]: 58882
Z-score [7]: 0.5553
SMILES: N#C/C(=C\c1ccc(O)c(O)c1)C(=O)N1CCc2ccccc21 [Tyrphostin AG 528]

Raw Signal [3]: 55783
Z-score [4]: -0.04678
SMILES: N#C/C(=C\c1ccc(O)c(O)c1)C(=O)NCCCc1ccccc1 [Tyrphostin AG 555]

Raw Signal [3]: 55945
Z-score [4]: -0.01531
SMILES: N#C/C(=C\c1c[nH]c2ccccc12)C(=O)c1ccc(O)c(O)c1 [Tyrphostin AG 808]

Raw Signal [3]: 56085
Z-score [4]: 0.01189
SMILES: CC(C)(C)c1cc(/C=C(\C#N)C(N)=S)cc(C(C)(C)C)c1O [Tyrphostin AG 879]
